According to patent US10105357B2, “Indication of antibiotic drugs for preparation of cancer inhibition pharmaceutical composition” (LAUNX BIOMEDICAL CO., LTD., priority 2014, dated 2018):
Counter-ions that a name gives are not always drawn. Like-named read-outs stand apart in the source and are kept apart here.

Experiments:
Format in all cases: cell-based, human
[1] = tested on: PC3 (p53−) (Prostate Adenocarcinoma); test: Cell viability analysis, prostate cancer PC3; conditions: Homo sapiens, 72 h
[2] = tested on: HepG2 (Hepatocellular Carcinoma); test: Cell viability analysis, hepatic cancer HepG2; conditions: Homo sapiens, HepG2, 72 h
[3] = tested on: HI650 (Lung Adenocarcinoma); test: Cell viability analysis, lung cancer HI650; conditions: Homo sapiens, NCI-H1650, 72 h
[4] = tested on: HeLa (Cervix Adenocarcinoma); test: Cell viability analysis, cervical cancer HeLa; conditions: Homo sapiens, HeLa, 72 h
[5] = tested on: HL-60 (Acute Promyelocytic Leukemia); test: Cell viability analysis, leukemia HL-60; conditions: Homo sapiens, HL-60, 72 h
[6] = tested on: A375 (Amelanotic Melanoma); test: Cell viability analysis, skin cancer A375; conditions: Homo sapiens, A-375, 72 h
[7] = tested on: LoVo (Colorectal Adenocarcinoma); test: Cell viability analysis, colon cancer LoVo; conditions: Homo sapiens, LoVo, 72 h
[8] = tested on: A549 (Lung Adenocarcinoma); test: Cell viability analysis, lung cancer A549; conditions: Homo sapiens, A549, 72 h
[9] = tested on: AGS (Gastric Adenocarcinoma); test: Cell viability analysis, gastric cancer AGS; conditions: Homo sapiens, 72 h
[10] = tested on: TSGH-8301 (Urinary Bladder Carcinoma); test: Cell viability analysis, bladder cancer TSGH-8301; conditions: Homo sapiens, 72 h
[11] = tested on: MCF7 (Mammary Gland, Adenocarcinoma); test: Cell viability analysis, breast cancer MCF7; conditions: Homo sapiens, MCF7, 72 h
[12] = tested on: cancer cell lines; test: Cell viability analysis (WST-1) on cancer cell lines; conditions: drug 10 μM, 72 hours, WST-1; Table 3
[13] = tested on: MKN-45 (Gastric Adenocarcinoma); test: Cell viability analysis, gastric cancer MKN-45; conditions: Homo sapiens, MKN-45, 72 h
[14] = drug 10 μM, 72 hours, WST-1, OD450 nm, read-out: cell viability (survival rate), PC3
[15] = drug 10 μM, 72 hours, WST-1, OD450 nm, read-out: cell viability (survival rate), HepG2
[16] = drug 10 μM, 72 hours, WST-1, OD450 nm, read-out: cell viability (survival rate), H1650
[17] = drug 10 μM, 72 hours, WST-1, OD450 nm, read-out: cell viability (survival rate), HeLa
[18] = drug 10 μM, 72 hours, WST-1, OD450 nm, read-out: cell viability (survival rate), HL-60
[19] = drug 10 μM, 72 hours, WST-1, OD450 nm, read-out: cell viability (survival rate), A375
[20] = read-out: cell viability (survival rate), LoVo, drug 10 μM, 72 hours, WST-1, OD450 nm
[21] = drug 10 μM, 72 hours, WST-1, OD450 nm, read-out: cell viability (survival rate), A549
[22] = drug 10 μM, 72 hours, WST-1, OD450 nm, read-out: cell viability (survival rate), AGS
[23] = drug 10 μM, 72 hours, WST-1, OD450 nm, read-out: cell viability (survival rate), TSGH
[24] = drug 10 μM, 72 hours, WST-1, OD450 nm, read-out: cell viability (survival rate), MCF7
[25] = drug 10 μM, 72 hours, WST-1, OD450 nm, read-out: cell viability (survival rate), MKN-45
[26] = read-out: cell viability (survival rate), PC3, drug 10 μM, 72 hours, WST-1, OD450 nm
[27] = read-out: cell viability (survival rate), HepG2, drug 10 μM, 72 hours, WST-1, OD450 nm
[28] = read-out: cell viability (survival rate), H1650, drug 10 μM, 72 hours, WST-1, OD450 nm
[29] = read-out: cell viability (survival rate), HeLa, drug 10 μM, 72 hours, WST-1, OD450 nm
[30] = read-out: cell viability (survival rate), HL-60, drug 10 μM, 72 hours, WST-1, OD450 nm
[31] = read-out: cell viability (survival rate), A375, drug 10 μM, 72 hours, WST-1, OD450 nm
[32] = read-out: cell viability (survival rate), A549, drug 10 μM, 72 hours, WST-1, OD450 nm
[33] = read-out: cell viability (survival rate), AGS, drug 10 μM, 72 hours, WST-1, OD450 nm
[34] = read-out: cell viability (survival rate), TSGH, drug 10 μM, 72 hours, WST-1, OD450 nm
[35] = read-out: cell viability (survival rate), MCF7, drug 10 μM, 72 hours, WST-1, OD450 nm
[36] = read-out: cell viability (survival rate), MKN-45, drug 10 μM, 72 hours, WST-1, OD450 nm

Row | SMILES | viability at 10 µM [1, 14] | viability at 10 µM [2, 15] | viability at 10 µM [3, 16] | viability at 10 µM [4, 17] | viability at 10 µM [5, 18] | viability at 10 µM [6, 19] | viability at 10 µM [7, 20] | viability at 10 µM [8, 21] | viability at 10 µM [9, 22] | viability at 10 µM [10, 23] | viability at 10 µM [11, 24] | inhibition effect on different cancer cell lines [12] | viability at 10 µM [13, 25] | viability at 10 µM [1, 26] | viability at 10 µM [2, 27] | viability at 10 µM [3, 28] | viability at 10 µM [4, 29] | viability at 10 µM [5, 30] | viability at 10 µM [6, 31] | viability at 10 µM [8, 32] | also measured
1 | CC(C)[C@H](N)C(=O)OCCOCn1cnc2c(=O)[nH]c(N)nc21 [Valaciclovir HCl] | 68.3% | 110% | 90.6% | 109% | 103% | 95.6% | 97% | 126% | 110% | 83.9% | 67.8% | significant inhibition effect | 91.6% |  |  |  |  |  |  |  | 
2 | CO[C@H]1/C=C/O[C@@]2(C)Oc3c(C)c(O)c4c(c3C2=O)C2=NC3(CCN(CC(C)C)CC3)NC2=C(NC(=O)/C(C)=C\C=C\[C@H](C)[C@H](O)[C@@H](C)[C@@H](O)[C@@H](C)[C@H](OC(C)=O)[C@@H]1C)C4=O [Rifabutin (Mycobutin), Rifabutin] |  |  |  |  |  |  | 104% |  |  |  |  | significant inhibition effect |  | 72.6% | 148% | 88.2% | 52.8% | 100% | 84% | 53.1% | viability at 10 µM [9, 33]: 115%; viability at 10 µM [10, 34]: 82.5%; viability at 10 µM [11, 35]: 48.8%; viability at 10 µM [13, 36]: 62.4%
3 | CC1=C(C(=O)O)N2C(=O)[C@@H](NC(=O)[C@H](N)c3ccccc3)[C@H]2SC1 [Cephalexin (Cefalexin), Cephalexin] |  |  |  |  |  |  | 85.9% |  |  |  |  | significant inhibition effect |  | 57.5% | 109% | 71.2% | 76.2% | 95.2% | 92.7% | 80.6% | viability at 10 µM [9, 33]: 59.6%; viability at 10 µM [10, 34]: 69.2%; viability at 10 µM [11, 35]: 96.1%; viability at 10 µM [13, 36]: 94.9%
4 | NCCS(=O)(=O)O [Taurine] |  |  |  |  |  |  | 98.5% |  |  |  |  | significant inhibition effect |  | 61.1% | 93.1% | 46.1% | 84.9% | 116% | 77.6% | 84% | viability at 10 µM [9, 33]: 64.1%; viability at 10 µM [10, 34]: 110%; viability at 10 µM [11, 35]: 91.5%; viability at 10 µM [13, 36]: 61.6%
5 | C[C@@H](O)[C@H]1C(=O)N2C(C(=O)O)=C(S[C@@H]3CN[C@H](C(=O)N(C)C)C3)[C@H](C)[C@H]12 [Meropenem] | 70.7% | 99.3% | 55.4% | 111% | 102% | 65.1% | 87.3% | 46% | 68.3% | 132% | 68.1% | significant inhibition effect | 84.9% |  |  |  |  |  |  |  | 
6 | O=C(O)CCNC(=O)c1ccccc1 [Betamipron] |  |  |  |  |  |  | 93.5% |  |  |  |  | significant inhibition effect |  | 92.6% | 90.9% | 72.8% | 75.9% | 96.2% | 85.8% | 72.3% | viability at 10 µM [9, 33]: 75.2%; viability at 10 µM [10, 34]: 85.4%; viability at 10 µM [11, 35]: 118%; viability at 10 µM [13, 36]: 88.2%
7 | NC(=O)C(c1ccccc1)(c1ccccc1)[C@@H]1CCN(CCc2ccc3c(c2)CCO3)C1 [Darifenacin HBr] | 86.1% | 81.6% | 126% | 87.7% | 78.2% | 60.5% |  | 100% | 80.4% | 99.8% | 59.7% | significant inhibition effect | 82.4% |  |  |  |  |  |  |  | viability at 10 µM ([7]; drug 10 μM, 72 hours, WST-1, OD450 nm, read-out: cell viability (survival rate), LoVo): 93.5%
8 | N[C@@H](C(=O)N[C@@H]1C(=O)N2C(C(=O)O)=C(Cl)CS[C@H]12)c1ccccc1 [Cefaclor (Ceclor), Cefaclor] | 70.1% | 108% | 62.3% | 86.7% | 112% | 67.5% | 88.2% | 61% | 41.9% | 81.6% | 90.6% | significant inhibition effect | 97% |  |  |  |  |  |  |  | 
9 | CCc1cc(C(N)=S)ccn1 [Ethionamide] |  |  |  |  |  |  | 86.5% |  |  |  |  | significant inhibition effect |  | 85.3% | 97.7% | 78.3% | 44.8% | 102% | 76.6% | 42.4% | viability at 10 µM [9, 33]: 53.7%; viability at 10 µM [10, 34]: 53.2%; viability at 10 µM [11, 35]: 36.4%; viability at 10 µM [13, 36]: 45.4%
10 | O=C(O)c1cccnc1Nc1cccc(C(F)(F)F)c1 [Niflumic acid] | 111% | 87.4% | 50.8% | 51.9% | 132% | 50% | 82% | 99.2% | 40.5% | 66.8% | 86.9% | significant inhibition effect | 68.7% |  |  |  |  |  |  |  | 
11 | Cc1cccc(C)c1OCC(=O)N[C@@H](Cc1ccccc1)[C@@H](O)C[C@H](Cc1ccccc1)NC(=O)[C@H](C(C)C)N1CCCNC1=O [Lopinavir (ABT-378), Lopinavir] |  |  |  |  |  |  | 85.1% |  |  |  |  | significant inhibition effect |  | 68% | 93.1% | 53.1% | 116% | 92.4% | 83.1% | 63.8% | viability at 10 µM [9, 33]: 55.4%; viability at 10 µM [10, 34]: 82.2%; viability at 10 µM [11, 35]: 77.9%; viability at 10 µM [13, 36]: 74.2%
12 | Cc1c(OCC(F)(F)F)ccnc1C[S+]([O-])c1nc2ccccc2[nH]1 (stereo not drawn) [Lansoprazole] | 94.2% | 72.3% | 45.5% | 53.6% | 78.6% | 60.6% | 96.1% | 84.5% | 71.5% | 109% | 141% | significant inhibition effect | 74.5% |  |  |  |  |  |  |  | 
